target: PIK3CG (human) (UniProt P48736); test: Assessment of PIK3CG Kinase Activity
Sequence (P48736 whole entry, looked up): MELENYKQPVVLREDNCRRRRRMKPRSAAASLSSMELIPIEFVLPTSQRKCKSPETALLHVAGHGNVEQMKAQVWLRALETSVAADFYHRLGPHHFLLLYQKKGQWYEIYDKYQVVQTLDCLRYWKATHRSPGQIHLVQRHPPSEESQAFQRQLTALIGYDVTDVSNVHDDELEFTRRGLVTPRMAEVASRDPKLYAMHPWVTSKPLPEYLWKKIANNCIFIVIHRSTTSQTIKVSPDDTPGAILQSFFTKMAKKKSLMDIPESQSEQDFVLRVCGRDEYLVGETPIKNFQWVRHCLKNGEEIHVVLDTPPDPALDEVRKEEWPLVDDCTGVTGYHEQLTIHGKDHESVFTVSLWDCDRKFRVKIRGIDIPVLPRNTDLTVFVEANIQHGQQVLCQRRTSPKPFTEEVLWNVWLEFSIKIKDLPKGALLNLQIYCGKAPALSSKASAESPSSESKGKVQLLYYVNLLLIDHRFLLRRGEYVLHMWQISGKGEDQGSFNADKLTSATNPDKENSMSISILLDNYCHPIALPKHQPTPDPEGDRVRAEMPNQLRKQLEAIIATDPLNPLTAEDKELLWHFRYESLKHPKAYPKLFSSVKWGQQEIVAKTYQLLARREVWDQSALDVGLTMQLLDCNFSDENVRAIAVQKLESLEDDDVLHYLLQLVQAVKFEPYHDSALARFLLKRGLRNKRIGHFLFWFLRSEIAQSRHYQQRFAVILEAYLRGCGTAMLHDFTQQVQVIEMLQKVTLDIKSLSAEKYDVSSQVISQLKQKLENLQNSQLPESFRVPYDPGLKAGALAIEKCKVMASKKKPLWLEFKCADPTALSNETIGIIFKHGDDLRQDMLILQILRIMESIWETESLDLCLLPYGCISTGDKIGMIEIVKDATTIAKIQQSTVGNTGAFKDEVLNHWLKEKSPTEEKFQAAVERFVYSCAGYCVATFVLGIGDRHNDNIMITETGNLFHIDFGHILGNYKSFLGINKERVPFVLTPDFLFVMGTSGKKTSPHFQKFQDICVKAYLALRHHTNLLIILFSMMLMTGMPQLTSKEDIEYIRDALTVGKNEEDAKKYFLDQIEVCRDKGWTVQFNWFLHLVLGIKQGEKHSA

Ki [nM] | SMILES
< 50 | Cc1nc(NC(=O)NCCOc2ccccc2)sc1C#Cc1cccnc1
50 to 250 | Cc1nc(NC(=O)COc2ccccc2)sc1C#Cc1ccncc1
< 50 | Cc1nc(NC(=O)NCCOc2cccc(Cl)c2)sc1C#Cc1ccncc1
< 50 | Cc1nc(NC(=O)NCCOc2ccccc2)sc1C#Cc1ccncc1
< 50 | CCCn1cnc(CCNC(=O)Nc2nc(C)c(C#Cc3ccncc3)s2)c1
< 50 | Cc1nc(NC(=O)NCCO)sc1C#Cc1ccncc1
< 50 | CCCO[C@@H](C)CNC(=O)Nc1nc(C)c(C#Cc2ccncc2)s1
< 50 | Cc1nc(NC(=O)NCCOc2ccccc2F)sc1C#Cc1ccncc1
< 50 | COCCNC(=O)Nc1nc(C)c(C#Cc2ccncc2)s1
50 to 250 | Cc1nc(NC(=O)NCCCOCC(F)(F)F)sc1C#Cc1ccncc1
50 to 250 | Cc1nc(NC(=O)NCCn2cnc(C(F)(F)F)c2)sc1C#Cc1ccncc1
50 to 250 | COC(=O)c1ccn2cc(CCNC(=O)Nc3nc(C)c(C#Cc4ccncc4)s3)nc2c1
50 to 250 | Cc1nc(NC(=O)NCCc2ccncc2)sc1C#Cc1ccncc1
< 50 | Cc1nc(NC(=O)NCCC(=O)NC(C)C)sc1C#Cc1ccncc1
< 50 | Cc1nc(NC(=O)NCCOC(=O)c2ccccc2)sc1C#Cc1ccncc1
< 50 | CCOC(=O)CCNC(=O)Nc1nc(C)c(C#Cc2ccncc2)s1
50 to 250 | Cc1nc(NC(=O)NCCOCC(F)(F)F)sc1C#Cc1ccncc1
< 50 | Cc1nc(NC(=O)NCCc2ncn(CC(F)F)c2Cl)sc1C#Cc1ccncc1
< 50 | Cc1nc(NC(=O)NCCc2cn(C(C)C)cn2)sc1C#Cc1ccncc1
< 50 | COc1cc(C#Cc2sc(NC(=O)NCCOc3ccncc3)nc2C)cnc1OC
< 50 | COc1cc(C#Cc2sc(NC(=O)NCCOc3ccccn3)nc2C)cnc1OC
< 50 | CCn1cnc(CCNC(=O)Nc2nc(C)c(C#Cc3ccncc3)s2)c1
< 50 | CCn1cnc(CCNC(=O)Nc2nc(C)c(C#Cc3ccncc3)s2)c1Cl
50 to 250 | CCc1ccc(OCCNC(=O)Nc2nc(C)c(C#Cc3ccncc3)s2)cc1
< 50 | Cc1nc(NC(=O)NCC2Cc3ccccc3O2)sc1C#Cc1ccncc1 (stereo not given)

Ki [nM] | SMILES
< 50 | CCc1ccc(CCNC(=O)Nc2nc(C)c(C#Cc3ccncc3)s2)nc1
50 to 250 | Cc1nc(NC(=O)NCCOc2cccnc2)sc1C#Cc1ccnc(Cl)c1
50 to 250 | Cc1nc(NC(=O)COCc2ccccc2)sc1C#Cc1ccncc1
< 50 | CCCCOCCCNC(=O)Nc1nc(C)c(C#Cc2ccncc2)s1
< 50 | Cc1nc(NC(=O)NCCc2cccnc2)sc1C#Cc1ccncc1
< 50 | Cc1nc(NC(=O)NCC[S+](C)[O-])sc1C#Cc1ccncc1 (stereo not given)
< 50 | Cc1nc(NC(=O)NCC#N)sc1C#Cc1ccncc1
< 50 | Cc1nc(NC(=O)NCCOc2ccc(F)cc2)sc1C#Cc1ccncc1
< 50 | Cc1nc(NC(=O)NCCOCC2CCCC2)sc1C#Cc1ccncc1
< 50 | Cc1nc(NC(=O)NCCn2cc(Cl)cn2)sc1C#Cc1ccncc1
< 50 | COc1ccccc1OCCNC(=O)Nc1nc(C)c(C#Cc2ccncc2)s1
< 50 | CCc1cnn(CCNC(=O)Nc2nc(C)c(C#Cc3ccncc3)s2)c1
< 50 | CCn1cc(CCNC(=O)Nc2nc(C)c(C#Cc3ccncc3)s2)cn1
< 50 | Cc1cccc(OCCNC(=O)Nc2nc(C)c(C#Cc3ccncc3)s2)c1
< 50 | CCc1ccc(CNC(=O)Nc2nc(C)c(C#Cc3ccncc3)s2)nc1
50 to 250 | Cc1nc(NC(=O)NC2COc3ccccc3C2)sc1C#Cc1ccncc1 (stereo not given)
< 50 | CCOCCNC(=O)Nc1nc(C)c(C#Cc2ccccc2)s1
< 50 | Cc1nc(NC(=O)NCCc2ccccn2)sc1C#Cc1ccncc1
50 to 250 | Cc1nc(NC(=O)NCCc2nccs2)sc1C#Cc1ccncc1
< 50 | Cc1nc(NC(=O)NC[C@H](C)O)sc1C#Cc1ccncc1
< 50 | Cc1nc(NC(=O)NCCc2cn(CCF)cn2)sc1C#Cc1ccncc1
< 50 | COc1ccc(CNC(=O)Nc2nc(C)c(C#Cc3ccncc3)s2)cc1
< 50 | CCc1cnc(CCNC(=O)Nc2nc(C)c(C#Cc3ccncc3)s2)s1
< 50 | COc1ccc(OCCNC(=O)Nc2nc(C)c(C#Cc3ccncc3)s2)cc1
50 to 250 | Cc1nc(NC(=O)NCC(F)(F)F)sc1C#Cc1ccncc1

Second part, the compound before the results:

SMILES | Ki [nM]
CC(=O)Nc1nc(C)c(C#Cc2ccc(Cl)nc2)s1 | 50 to 250
Cc1nc(NC(=O)NCCC(=O)N(C)CC(F)(F)F)sc1C#Cc1ccccc1 | 50 to 250
CC(=O)Nc1nc(C)c(C#Cc2cccc(F)c2)s1 | 50 to 250
COc1cc(C#Cc2sc(NC(=O)NCCOc3cccnc3)nc2C)cnc1OC | < 50
COc1cc(C#Cc2sc(NC(=O)NCCOCC3CC3)nc2C)cc(OC)c1 | 50 to 250
Cc1nc(NC(=O)NCCc2cn(CC(F)F)cn2)sc1C#Cc1cccnc1 | < 50
Cc1nc(NC(=O)NCCOCC2CC2)sc1C#Cc1ccc(Cl)nc1 | 50 to 250
COc1cncc(C#Cc2sc(NC(=O)NC[C@H](C)O)nc2C)c1 | < 50
COc1ncc(C#Cc2sc(NC(=O)NCCOCC3CC3)nc2C)cn1 | < 50
Cc1nc(NC(=O)CCCC(=O)NCC(F)(F)F)sc1C#Cc1ccncc1 | 50 to 250
Cc1nc(NC(=O)CCC(=O)OC(C)(C)C)sc1C#Cc1ccncc1 | 50 to 250
Cc1nc(NC(=O)NCCOCC2CC2)sc1C#Cc1cccnc1Cl | < 50
Cc1nc(NC(=O)N2CCC(OCc3ccccc3)C2)sc1C#Cc1ccncc1 (stereo not given) | 50 to 250
CCOC(=O)CCCC(=O)Nc1nc(C)c(C#Cc2ccncc2)s1 | 50 to 250
CC(=O)Nc1nc(C)c(C#Cc2cncn2C)s1 | 50 to 250
Cc1cccc(NC(=O)CC(=O)Nc2nc(C)c(C#Cc3ccncc3)s2)c1 | 50 to 250
Cc1nc(NC(=O)NCCc2cn(CC(F)F)cn2)sc1C#Cc1ccccc1 | 50 to 250
COC1CN(C(=O)Nc2nc(C)c(C#Cc3ccncc3)s2)C1 | < 50
Cc1nc(NC(=O)NCCC(=O)NCC(F)(F)F)sc1C#Cc1ccccc1 | 50 to 250
CCc1nc(NC(C)=O)sc1C#Cc1ccncc1 | 50 to 250
Cc1nc(NC(=O)NCCOCC2CC2)sc1C#Cc1cncn1C | 50 to 250
COc1cncc(C#Cc2sc(NC(C)=O)nc2C)c1 | < 50
Cc1nc(NC(=O)NCCOCC2CC2)sc1C#Cc1cnc2ncccc2c1 | < 50
Cc1nc(NC(=O)NCCOCC2CC2)sc1C#Cc1ccc2nccn2c1 | < 50

SMILES | Ki [nM]
Cc1nc(NC(=O)NCCc2cn(CC(F)F)cn2)sc1C#Cc1ccccc1Cl | 50 to 250
Cc1nc(NC(=O)NCCOCC2CC2)sc1C#Cc1ccnn1C | 50 to 250
CC(=O)NCC(=O)Nc1nc(C)c(C#Cc2ccncc2)s1 | < 50
COc1cccc(C#Cc2sc(NC(C)=O)nc2C)c1 | 50 to 250
COc1ccc(C#Cc2sc(NC(C)=O)nc2C)cc1 | 50 to 250
CCCO[C@@H](C)CNC(=O)Nc1nc(C)c(C#Cc2cncc(OC)c2)s1 | < 50
Cc1nc(NC(=O)NCCOCC2CC2)sc1C#Cc1ccn(C)c(=O)c1 | 50 to 250
CC(=O)Nc1nc(C)c(C#Cc2sc(NC(=O)NCCOCC3CC3)nc2C)s1 | 50 to 250
CCCOCCOC(=O)Nc1nc(C)c(C#Cc2ccncc2)s1 | < 50
Cc1nc(NC(=O)NCCc2cn(CC(F)(F)F)cn2)sc1C#Cc1ccccc1 | < 50
COc1ccc(C#Cc2sc(NC(=O)NCCOCC3CC3)nc2C)nc1OC | < 50
CC(=O)Nc1nc(C)c(C#Cc2ccccc2)s1 | 50 to 250
Cc1nc(NC(=O)NCCOCC2CC2)sc1C#Cc1ccc2nccnc2c1 | < 50
Cc1nc(NC(=O)NCCOCC2CC2)sc1C#Cc1ccnc2ccccc12 | < 50
COc1ccc(C#Cc2sc(NC(=O)NCCOCC3CC3)nc2C)cc1OC | < 50
CC(=O)N1CC(C(=O)Nc2nc(C)c(C#Cc3ccncc3)s2)C1 | 50 to 250
CCC(O)CNC(=O)Nc1nc(C)c(C#Cc2cncc(OC)c2)s1 (stereo not given) | < 50
Cc1nc(NC(=O)CCCC(=O)NCC(F)F)sc1C#Cc1ccncc1 | 50 to 250
COc1cc(C#Cc2sc(NC(=O)NC[C@H](C)OCC3CC3)nc2C)cnc1OC | < 50
CCOC(=O)[C@H]1CCC[C@H]1NC(=O)Nc1nc(C)c(C#Cc2ccncc2)s1 | 50 to 250
CC(=O)Nc1nc(C)c(C#Cc2ccc(N)cc2)s1 | 50 to 250
Cc1nc(NC(=O)NCCOCC2CC2)sc1C#Cc1cc(F)ncc1Cl | < 50
COc1ccc(C#Cc2sc(NC(=O)NCCOCC3CC3)nc2C)cn1 | 50 to 250
Cc1nc(NC(=O)NCCOCC2CC2)sc1C#Cc1cncc(C(F)(F)F)c1 | 50 to 250

SMILES | Ki [nM]
Cc1nc(NC(=O)CCNC(=O)c2ccccn2)sc1C#Cc1cccnc1 | < 50
COc1cc(C#Cc2sc(NC(=O)NCCOCC3CC3)nc2C)cnc1Cl | 50 to 250
Cc1nc(NC(=O)NCCC(=O)NCC(F)(F)F)sc1C#Cc1ccncc1 | < 50
CCn1c(C)nc(CCNC(=O)Nc2nc(C)c(C#Cc3ccncc3)s2)c1Cl | < 50
Cc1nc(NC(=O)NC[C@H](C)OCC2CC2)sc1C#Cc1ccc2ncccc2c1 | < 50
Cc1nc(NC(=O)NCC2CCCO2)sc1C#Cc1ccncc1 (stereo not given) | < 50
Cc1nc(NC(=O)NCCOCC2CC2)sc1C#Cc1cc(Cl)ncc1F | < 50
Cc1nc(NC(=O)CCCC(=O)NC(C)(C)C)sc1C#Cc1ccncc1 | 50 to 250
CC(=O)Nc1nc(C)c(C#Cc2cccnc2)s1 | 50 to 250
COc1cncc(C#Cc2sc(NC(=O)NC[C@H](C)OCC3CC3)nc2C)c1 | < 50
CCOC(=O)N1CCC(OC(=O)Nc2nc(C)c(C#Cc3ccncc3)s2)CC1 | 50 to 250
Cc1nc(NC(=O)NCCOCC2CC2)sc1C#Cc1cccnc1 | < 50
CC(=O)Nc1nc(C)c(C#Cc2cncc(C(F)(F)F)c2)s1 | 50 to 250
Cc1nc(NC(=O)NC[C@H](C)OCC2CC2)sc1C#Cc1cncc(F)c1 | < 50
CC(=O)Nc1nc(C)c(C#Cc2ccccc2C)s1 | < 50
Cc1nc(NC(=O)NCCOCCN2CCOCC2)sc1C#Cc1ccncc1 | 50 to 250
Cc1nc(NC(=O)NCC2CCCCO2)sc1C#Cc1ccncc1 (stereo not given) | < 50
Cc1nc(NC(=O)NCCOCC2CC2)sc1C#Cc1ccncc1F | < 50
Cc1nc(NC(=O)NCCC(=O)NC(C)(C)C)sc1C#Cc1ccncc1 | < 50
COC(=O)CCCC(=O)Nc1nc(C)c(C#Cc2ccncc2)s1 | 50 to 250
Cc1nc(NC(=O)NCCC2COCCO2)sc1C#Cc1ccncc1 (stereo not given) | < 50
COc1cc(C#Cc2sc(NC(=O)NCCOCC3CC3)nc2C)cnc1OC | < 50
